# US10570122B2, “Compounds with anti-tumoral activity” (AB Science, priority 2015, dated 2020)
# Columns and labels:
# KARPAS299 = test: CellTiter-Blue cell-based survival/proliferation assay, KARPAS299; details: Homo sapiens, KARPAS-299, Lymphoma cell line KARPAS299, 48 h, read-out: Anti-tumoral activity (measured IC50) KARPAS299
# Method in brief: (§1)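 Compounds, diluted tenfold serially over 0–10 μM, are applied to 1·10^4 seeded cells per well for 48 h at 37 °C. Resorufin formed during a further 4 h with CellTiter-Blue is detected by fluorescence emission at 590 nm.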
# DU145 = test: CellTiter-Blue cell-based survival/proliferation assay, DU145; details: Homo sapiens, DU-145; DU145 prostate tumor cell line, 48 h
# Method in brief: as §1
# HEPG2 = test: CellTiter-Blue cell-based survival/proliferation assay, HEPG2; details: Homo sapiens; HEPG2 liver tumor cell line, 48 h
# Method in brief: as §1
# HUT78 = test: CellTiter-Blue cell-based survival/proliferation assay, HUT78; details: Homo sapiens, Lymphoma cell line HUT78, 48 h, read-out: Anti-tumoral activity (measured IC50) HUT78
# Method in brief: as §1
# PC3 = test: CellTiter-Blue cell-based survival/proliferation assay, PC3; details: Homo sapiens, PC-3; PC3 prostate tumor cell line, 48 h
# Method in brief: as §1
# HL60 = test: CellTiter-Blue cell-based survival/proliferation assay, HL60; details: Homo sapiens, HL-60, Leukemia cell line HL60, 48 h, read-out: Anti-tumoral activity (measured IC50) HL60
# Method in brief: as §1
# REC1 = test: CellTiter-Blue cell-based survival/proliferation assay, REC1; details: Homo sapiens, Lymphoma cell line REC1, 48 h, read-out: Anti-tumoral activity (measured IC50) REC1
# Method in brief: as §1
# H1299 = test: CellTiter-Blue cell-based survival/proliferation assay, H1299; details: Homo sapiens, NCI-H1299; H1299 lung tumor cell line, 48 h
# Method in brief: as §1
# HEP2 = test: CellTiter-Blue cell-based survival/proliferation assay, HEP2; details: Homo sapiens, HEp-2; HEP2 head & neck tumor cell line, 48 h
# Method in brief: as §1
# ACHN = test: CellTiter-Blue cell-based survival/proliferation assay, ACHN; details: Homo sapiens; ACHN kidney tumor cell line, 48 h
# Method in brief: as §1
# MDAMB231 = test: CellTiter-Blue cell-based survival/proliferation assay, MDAMB231; details: Homo sapiens, MDA-MB-231; MDAMB231 breast tumor cell line, 48 h
# Method in brief: as §1
# HGC27 = test: CellTiter-Blue cell-based survival/proliferation assay, HGC27; details: Homo sapiens, HGC-27; HGC27 stomach tumor cell line, 48 h
# Method in brief: as §1
# PLCPRF5 = test: CellTiter-Blue cell-based survival/proliferation assay, PLCPRF5; details: Homo sapiens, PLC-PRF-5; PLC_PRF5 liver tumor cell line, 48 h
# Method in brief: as §1
# AGS = test: CellTiter-Blue cell-based survival/proliferation assay, AGS; details: Homo sapiens; AGS stomach tumor cell line, 48 h
# Method in brief: as §1
# [1] = tested on: panel of about 34 human tumor cell lines; test: Cell-based proliferation screening on panel of tumor cell lines; details: solid tumor cell line, cell line unknown, 48 h, read-out: IC50, solid tumor cell line of column 6 (last section of Table 3)
# Method in brief: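 CellTiter-Blue survival assay with 1·10^4 cells/well, each line treated 48 h at 37° C with 1/10 serial dilutions from 0 to 10 μM. Resorufin formed during a 4 h reagent incubation is read by fluorescence at 590 nm. A cell-free blank serves as background.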
# PANC1 = test: CellTiter-Blue cell-based survival/proliferation assay, PANC1; details: Homo sapiens, PANC-1; PANC_1 pancreas tumor cell line, 48 h
# Method in brief: as §1
# MESSA = test: CellTiter-Blue cell-based survival/proliferation assay, MESSA; details: Homo sapiens, MES-SA; MESSA ovary tumor cell line, 48 h
# Method in brief: as §1
# BXPC3 = test: CellTiter-Blue cell-based survival/proliferation assay, BXPC3; details: Homo sapiens, BXPC-3; BXPC3 pancreas tumor cell line, 48 h
# Method in brief: as §1
# CLS354 = test: CellTiter-Blue cell-based survival/proliferation assay, CLS354; details: Homo sapiens, CLS-354; CLS354_4 head & neck tumor cell line, 48 h
# Method in brief: as §1
# SW579 = test: CellTiter-Blue cell-based survival/proliferation assay, SW579; details: Homo sapiens; SW579 head & neck tumor cell line, 48 h
# Method in brief: as §1
# OPM2 = test: CellTiter-Blue cell-based survival/proliferation assay, OPM2; details: Homo sapiens, OPM-2, Myeloma cell line OPM2, 48 h, read-out: Anti-tumoral activity (measured IC50) OPM2
# Method in brief: as §1
# BT20 = test: CellTiter-Blue cell-based survival/proliferation assay, BT20; details: Homo sapiens, BT-20; BT20 breast tumor cell line, 48 h
# Method in brief: as §1
# A498 = test: CellTiter-Blue cell-based survival/proliferation assay, A498; details: Homo sapiens; A498 kidney tumor cell line, 48 h
# Method in brief: as §1
# HCT116 = test: CellTiter-Blue cell-based survival/proliferation assay, HCT116; details: Homo sapiens, HCT-116; HCT116 colorectal tumor cell line, 48 h
# Method in brief: as §1
# A549 = test: CellTiter-Blue cell-based survival/proliferation assay, A549; details: Homo sapiens; A549 lung tumor cell line, 48 h
# Method in brief: as §1
# DLD1 = test: CellTiter-Blue cell-based survival/proliferation assay, DLD1; details: Homo sapiens, DLD-1; DLD_1 colorectal tumor cell line, 48 h
# Method in brief: as §1
# TOV112D = test: CellTiter-Blue cell-based survival/proliferation assay, TOV112D; details: Homo sapiens; TOV112D ovary tumor cell line, 48 h
# Method in brief: as §1
# CALU6 = test: CellTiter-Blue cell-based survival/proliferation assay, CALU6; details: Homo sapiens, Calu-6; CALU6 lung tumor cell line, 48 h
# Method in brief: as §1
SMILES,IC50 [1] [µM],IC50 (KARPAS299) [µM],IC50 (DU145) [µM],IC50 (HEPG2) [µM],IC50 (HUT78) [µM],IC50 (PC3) [µM],IC50 (HL60) [µM],IC50 (REC1) [µM],IC50 (H1299) [µM],IC50 (HEP2) [µM],IC50 (ACHN) [µM],IC50 (MDAMB231) [µM],IC50 (HGC27) [µM],IC50 (PLCPRF5) [µM],IC50 (AGS) [µM],IC50 (PANC1) [µM],IC50 (MESSA) [µM],IC50 (BXPC3) [µM],IC50 (CLS354) [µM],IC50 (SW579) [µM],also measured
"CCOCc1ccc(C)c(Nc2ncc(-c3ccc(-n4cc(C)cn4)cc3)o2)c1 [Example 040, (5-Ethoxymethyl-2-methyl-phenyl)-{5-[4-(4-methyl-pyrazol-1-yl)-phenyl]-oxazol-2-yl}-amine]",> 1,> 1,> 1,> 1,> 1,> 1,> 1,> 1,> 1,> 1,> 1,> 1,> 1,> 1,> 1,> 1,> 1,> 1,> 1,> 1,IC50 (OPM2): > 1 µM; IC50 (BT20): > 1 µM; IC50 (A498): > 1 µM; IC50 (HCT116): > 1 µM; IC50 (A549): > 1 µM; IC50 (DLD1): > 1 µM; IC50 (TOV112D): > 1 µM; IC50 (CALU6): > 1 µM
"CCOCc1ccc(C)c(Nc2ncc(-c3ccc(N4CCN(C)C4=O)cc3)o2)c1 [Example 044, 1-{4-[2-(5-Ethoxymethyl-(2-methyl-phenylamino))-oxazol-5-yl]-phenyl}-3-methyl-imidazolidin-2-one]",0.1 to 0.5,0.1 to 0.5,> 1,> 1,0.5 to 1,0.5 to 1,0.1 to 0.5,0.1 to 0.5,> 1,> 1,> 1,> 1,> 1,> 1,> 1,> 1,> 1,> 1,0.5 to 1,> 1,IC50 (OPM2): 0.5 to 1 µM; IC50 (BT20): > 1 µM; IC50 (A498): > 1 µM; IC50 (HCT116): > 1 µM; IC50 (A549): > 1 µM; IC50 (DLD1): > 1 µM; IC50 (TOV112D): > 1 µM; IC50 (CALU6): > 1 µM
"CCOCc1ccc(C)c(Nc2ncc(-c3ccc(N4CCN(CCNC(C)=O)C4=O)cc3)o2)c1 [Example 046, N-[2-(3-{4-[2-(5-Ethoxymethyl-(2-methyl-phenylamino))-oxazol-5-yl]-phenyl}-2-oxo-imidazolidin-1-yl)-ethyl]-acetamide]",> 1,> 1,> 1,> 1,> 1,> 1,> 1,> 1,> 1,> 1,> 1,> 1,> 1,> 1,> 1,> 1,> 1,> 1,> 1,> 1,IC50 (OPM2): > 1 µM; IC50 (BT20): > 1 µM; IC50 (A498): > 1 µM; IC50 (HCT116): > 1 µM; IC50 (A549): > 1 µM; IC50 (DLD1): > 1 µM; IC50 (TOV112D): > 1 µM; IC50 (CALU6): > 1 µM

# Now from value to compound, other results behind:
IC50 [1] [µM],SMILES,IC50 (KARPAS299) [µM],IC50 (DU145) [µM],IC50 (HEPG2) [µM],IC50 (HUT78) [µM],IC50 (PC3) [µM],IC50 (HL60) [µM],IC50 (REC1) [µM],IC50 (H1299) [µM],IC50 (HEP2) [µM],IC50 (ACHN) [µM],IC50 (MDAMB231) [µM],IC50 (HGC27) [µM],IC50 (PLCPRF5) [µM],IC50 (AGS) [µM],IC50 (PANC1) [µM],IC50 (MESSA) [µM],IC50 (BXPC3) [µM],IC50 (CLS354) [µM],IC50 (SW579) [µM],also measured
> 1,"CCOCc1ccc(C)c(Nc2ncc(-c3ccc(N4CCN(CCN)C4=O)cc3)o2)c1 [Example 045, 1-(2-Amino-ethyl)-3-{4-[2-(5-ethoxymethyl-(2-methyl-phenylamino))-oxazol-5-yl]-phenyl}-imidazolidin-2-one]",> 1,> 1,> 1,> 1,> 1,> 1,> 1,> 1,> 1,> 1,> 1,> 1,> 1,> 1,> 1,> 1,> 1,> 1,> 1,IC50 (OPM2): > 1 µM; IC50 (BT20): > 1 µM; IC50 (A498): > 1 µM; IC50 (HCT116): > 1 µM; IC50 (A549): > 1 µM; IC50 (DLD1): > 1 µM; IC50 (TOV112D): > 1 µM; IC50 (CALU6): > 1 µM
0.5 to 1,"CCOCc1ccc(C)c(Nc2ncc(-c3ccc(-c4ccccn4)cc3)o2)c1 [Example 048, (5-Ethoxymethyl-2-methyl-phenyl)-[5-(4-pyridin-2-yl-phenyl)-oxazol-2-yl]-amine]",0.5 to 1,> 1,> 1,0.5 to 1,> 1,0.1 to 0.5,0.5 to 1,> 1,> 1,> 1,> 1,> 1,> 1,> 1,> 1,> 1,> 1,0.5 to 1,> 1,IC50 (OPM2): 0.5 to 1 µM; IC50 (BT20): > 1 µM; IC50 (A498): > 1 µM; IC50 (HCT116): > 1 µM; IC50 (A549): > 1 µM; IC50 (DLD1): > 1 µM; IC50 (TOV112D): > 1 µM; IC50 (CALU6): > 1 µM
